Results: paper PMC8305076, “Comprehensive Evaluation of Biological Effects of Pentathiepins on Various Human Cancer Cell Lines and Insights into Their Mode of Action” (International Journal of Molecular Sciences, 2021)
Where two headings read alike, the source gives them in different places.

How the values were obtained:
Experiment in all cases: MTT cell viability assay
Assay type in all cases: cell-based
Kyse-70 = details: Homo sapiens, 48 h
Method: (§1) Distinct MTT cell viability and crystal violet cell proliferation assays were performed to assess the cytotoxicity of the compounds 1–6 on 14 human cancer cell lines. In the viability assay, cells with intact mitochondria and thus active dehydrogenases are competent to convert MTT to the corresponding insoluble formazan. The formazan can be photometrically detected after solubilization and allows for indirect conclusions about the viability of the cells as an IC50 value. In the crystal violet assay, cells are stained by the binding of the dye to the chromatin, thus allowing for a quantification of biomass that remains adherent after a treatment in comparison with a control after a specific time. Potency is defined as the growth inhibitory concentration 50% (GI50).
(§2) In addition to performing the cell viability assay under normoxia (19% atmospheric oxygen), incubations were also conducted under hypoxic conditions, i.e., atmospheric oxygen levels of 1% during the treatment for 48 h. Hypoxia is a favorable condition of the tumor microenvironment that is connected with poor outcome. Therefore, the low oxygen condition mimics better the tumor environment. The biological effect of the pentathiepins under this condition provides insight into their dependency for oxygen, which has been postulated a key component in the proposed mechanism of action (Figure 3). Consistent with the proposed mechanism of action for five of the compounds, potency decreased under hypoxic conditions; in fact for 6, the half-maximal inhibitory concentration exceeded the highest tested concentration of 10 µM in four cell lines (Figure 6, Table S3). […] In contrast to the other compounds, in some cell lines, the cytotoxic effects of 1 were more pronounced under oxygen-reduced incubation conditions (Figure 6), indicating a tangential role of oxygen availability for this pentathiepin. Especially for the breast cancer cell line MCF-7, the cytotoxicity increased substantially, indicated by a decrease of the IC50 from >10.0 µM to about 1.0 µM.
(§3) The effect of the pentathiepins on the viability of the cell lines was assessed via an MTT assay, performed as previously described. Healthy and viable cells convert the yellow soluble 3-(4,5-dimethylthiazol-2-yl)-2,5-diphenyltetrazolium bromide to the insoluble purple corresponding formazan, which can be spectrophotometrically measured. For this assay, 5000 cells (1 250 for LCLC-103H) in 0.1 mL of medium were seeded per well of a 96-well plate and incubated at standard conditions for 24 h prior to treatment. A serial dilution of the test compounds was prepared in medium, covering final concentrations from 10.0 to 0.04 µM, and 0.1 mL of the working solution was added to each well in triplicate. After 48 h, 20 µL of a 2.5 mg/mL MTT in PBS solution was pipetted into each well and further incubated for 4 h at standard conditions. Thereafter, medium was replaced with 50 µL DMSO, and the plates were put on a shaker for 5 min and subsequently read at λ = 570 nm, with a SpectraMax 384plus (Molecular Devices, Sunnyvale, CA, USA). The cell viabilities of the treatment conditions were calculated in relation to a solvent control sample. The absolute IC50 was calculated via nonlinear regression followed by interpolation of the dose–response graphs in Prism 7 (GraphPad, San Diego, CA, USA). The IC90 was derived from the IC50 by using the slope factor of the dose–response graph with the tool QuickCalcs from GraphPad (GraphPad Software, San Diego, CA, USA).

A2780cis = details: Homo sapiens, 48 h
Method: as §1, §2, §3

A2780 = details: Homo sapiens; for IC50: 48 h; for IC90: calculated via GraphPad QuickCalcs from MTT IC50 and slope factor
Method: as §1, §2, §3

Siso = details: Homo sapiens; for IC50: 48 h; for IC90: calculated via GraphPad QuickCalcs from MTT IC50 and slope factor
Method: as §1, §2, §3

RT-112 = details: Homo sapiens, 48 h
Method: as §1, §2, §3

LCLC-103H = details: Homo sapiens, 48 h
Method: as §1, §2, §3

A-427 = details: Homo sapiens, 48 h
Method: as §1, §2, §3

YAPC = details: Homo sapiens; for IC50: 48 h; for IC90: calculated via GraphPad QuickCalcs from MTT IC50 and slope factor
Method: as §1, §2, §3

PATU-8902 = details: Homo sapiens; for IC50: 48 h; for IC90: calculated via GraphPad QuickCalcs from MTT IC50 and slope factor
Method: as §1, §2, §3

RT-4 = details: Homo sapiens, 48 h
Method: as §1, §2, §3

DanG = details: Homo sapiens; for IC50: 48 h; for IC90: calculated via GraphPad QuickCalcs from MTT IC50 and slope factor
Method: as §1, §2, §3

HAP-1.KO.GPx1 = details: Homo sapiens; for IC50: 48 h; for IC90: calculated via GraphPad QuickCalcs from MTT IC50 and slope factor
Method: as §1, §2, §3

HAP-1 = details: Homo sapiens; for IC50: HAP1, 48 h; for IC90: HAP1, calculated via GraphPad QuickCalcs from MTT IC50 and slope factor
Method: as §1, §2, §3

[1] = hypoxic (1% O2), read-out: IC50 MTT-H mean
[2] = normoxic (19% O2), read-out: IC50 MTT-N mean

Row | SMILES | IC50 (Kyse-70; [1]) [nM] | IC50 (Kyse-70; [2]) [nM] | IC50 (A2780cis; [1]) [nM] | IC50 (A2780cis; [2]) [nM] | IC50 (A2780; [1]) [nM] | IC50 (A2780; [2]) [nM] | IC90 (A2780) [nM] | IC50 (Siso; [1]) [nM] | IC50 (Siso; [2]) [nM] | IC90 (Siso) [nM] | IC50 (RT-112; [1]) [nM] | IC50 (RT-112; [2]) [nM] | IC50 (LCLC-103H; [1]) [nM] | IC50 (LCLC-103H; [2]) [nM] | IC50 (A-427; [1]) [nM] | IC50 (A-427; [2]) [nM] | IC50 (YAPC; [1]) [nM] | IC50 (YAPC; [2]) [nM] | IC90 (YAPC) [nM] | IC50 (PATU-8902; [1]) [nM] | further results
1 | CCOc1c2c(c3ccc(C(=O)N4CCOCC4)cn13)SSSSS2 [Compound 3, (6-Ethoxy-[1,2,3,4,5]pentathiepino[6,7-a]indolizin-9-yl)(morpholino)methanone] | 2290 | 824 | 316 | 206 | 616 | 135 | 360 | 2730 | 573 | 1230 | 1470 | 1050 | 820 | 571 | 959 | 785 | 2370 | 1220 | 2240 | 2340 | IC50 (PATU-8902; [2]): 1050 nM; IC90 (PATU-8902): 2480 nM; IC50 (RT-4; [1]): 2310 nM; IC50 (RT-4; [2]): 878 nM; IC50 (DanG; [1]): 2660 nM; IC50 (DanG; [2]): 1450 nM; IC90 (DanG): 2540 nM; IC50 (HAP-1.KO.GPx1; [1]): 911 nM; IC50 (HAP-1.KO.GPx1; [2]): 368 nM; IC90 (HAP-1.KO.GPx1): 800 nM; IC50 (HAP-1; [1]): 657 nM; IC50 (HAP-1; [2]): 263 nM; IC90 (HAP-1): 620 nM
2 | CCOc1c2c(c3ccc(C(=O)N(CC)CC)cn13)SSSSS2 [Compound 4, 6-Ethoxy-N,N’-diethyl-[1,2,3,4,5]pentathiepino[6,7-a]indolizine-9-carboxamide] | 3600 | 976 | 544 | 399 | 799 | 213 | 610 | 4240 | 934 | 1930 | 1780 | 1200 | 827 | 674 | 1190 | 1090 | 2210 | 1150 | 3700 | 1270 | IC50 (PATU-8902; [2]): 823 nM; IC90 (PATU-8902): 6000 nM; IC50 (RT-4; [1]): 2220 nM; IC50 (RT-4; [2]): 1310 nM; IC50 (DanG; [1]): 4460 nM; IC50 (DanG; [2]): 1650 nM; IC90 (DanG): 2710 nM; IC50 (HAP-1.KO.GPx1; [1]): 1180 nM; IC50 (HAP-1.KO.GPx1; [2]): 322 nM; IC90 (HAP-1.KO.GPx1): 640 nM; IC50 (HAP-1; [1]): 832 nM; IC50 (HAP-1; [2]): 263 nM; IC90 (HAP-1): 510 nM
